The source of these data is patent US4338314A, “[1,2]Anellated-7-phenyl-1,4-benzodiazepine and pharmaceutical compositions thereof and use for treatment of ulcers” (Kali-Chemie Pharma GmbH, priority 1978, dated 1982).

A short description of series [1]: Acute 7-day toxicity after a single application per os (LD50). Particulars: mouse, in vivo; single oral dose, unfed white NMRI mice, 7 days. On the procedure: The acute 7-day toxicity is determined after a single application per os in white NMRI mice which have not been fed. The calculation of the LD50 is carried out by probitananalysis by means of electronic data processing (see L. Cavalli-Sforza, Gustav-Fischer-Verlag, Stuttgart (1964), Grundbegriffe der Biometrie, Chapter 10, pages 153-190).

In a further series the test system is muscle tone. Description: Testing of musculatropic properties (traction test). Particulars: Mus musculus, 2 h; oral, mice, after 120 minutes; half of animals do not touch wire with hind legs within 5 seconds. It is filed as in vivo. As for the experimental part:
3. Testing of Musculatropic Properties:
In a traction test, mice are administered the test substance orally. After 120 minutes the mice are attached at the front paws to a horizontally suspended wire. The ED50 is the dose which causes exactly half of the animals not to touch the wire also with their hind legs within a period of 5 seconds, (W. Theobald et al, Arneim. Forschung 17, (1967), page 561). This test measures the influence of the test substance on the muscle tone of the test subject.

Series [2] relates to central nervous system (hexobarbital sleep time). Description: Central nervous depressant properties (prolonging the hexobarbital sleep time). Particulars: Mus musculus, 0.5 h; oral, mice, 30 minutes before 64 mg/kg hexobarbital; half of animals extend sleep by factor of 4; read-out: Prolonging hexobarbitol sleep time (ED50). It is filed as in vivo. On the procedure:
4. Testing of Central Nervous Depressant Properties (Prolonging the Hexobarbital sleep time):
The test substance is administered orally to mice. After 30 minutes, the animals are additionally injected with hexabarbitol in an amount of 64 mg/kg. The time point of the onset of sleeping posture is determined and the duration of sleeping posture is compared with a control group treated exclusively with hexobarbitol. The dose, with which half of the animals extend the time of sleeping posture by a factor of 4 over that of the control group, is defined as ED50. (J. W. Kemp. M. Tannhauser and E. A. Swingard, Arch. Int. Pharmacodyn. 193(1971), pp 34-47).

Series [3] relates to indomethacine-induced ulcers. Description: Effectiveness against indomethacine-induced ulcers in rats. It counts as in vivo, rats (male). Particulars: Rattus norvegicus, 1 h before 40 mg/kg indomethacine, 24 h, read-out: Ulcer induced by indomethacine, % inhibited; for inhibition in vivo at 100 mg/kg: 100 mg/kg oral; for inhibition in vivo at 200 mg/kg: 200 mg/kg oral. On the procedure:
2. Effectiveness Against Indomethacine-Induced Ulcers in Rats Modified Test Procedure According to U. Jahn and R. W. Adrian, Arzneimittel Forschung, (Drug Research) 19, (1969), p. 36.:
The animals of the blank control group receive the corresponding amount by volume of the suspension medium only. One hour after the application of the test compouns, a dosage of 40 mg/kg of indomethacine contained in an amount of 0.5 ml of a suspension per 100 g animal weight are orally applied to each animal for producing ulcers. Twenty-four hours after the application of the indomethacine the animals are sacrificed.

The subject of another series is central nervous system. Description: Central nervous / psychopharmacological activity, side effects and toxicity, general statement.

Consider `Clc1ccc2c(c1)C(c1ccccc1Cl)=NCC1COCCN21` (stereo not shown) [E], for which the LD50 (as a rule, the dose expected to kill half of the subjects tested) at 168 h in series [1] was above 1470 mg/kg. Further, the ED50 (usually the midpoint of the dose-response relation) is above 316 mg/kg in the series with muscle tone and 11.8 mg/kg in series [2]. Further, in series [3], the inhibition in vivo at 100 mg/kg came to 86%.

`Fc1ccc2c(c1)C(c1ccccc1)=NCC1COCCN21` (stereo not shown) [B] came in with an LD50 at 168 h in series [1] above 1370 mg/kg. Also, the figures for the ED50 (with muscle tone; in series [2]) were above 296 mg/kg and 80.3 mg/kg, respectively. Besides, the inhibition in vivo at 100 mg/kg in series [3] amounted to 77%.

The compound `Clc1ccc2c(c1)C(c1ccccc1)=NCC1CSCCN21` (stereo not shown) [H] came in with an LD50 at 168 h in series [1] above 1470 mg/kg. Further, the ED50 was 316 mg/kg with muscle tone and 153 mg/kg in series [2]. For the same compound, in series [3], the inhibition in vivo at 100 mg/kg was 74%.

As to `CN1C(=O)CN=C(c2ccccc2)c2cc(Cl)ccc21` [Substance S, 7-chloro-1-methyl-5-phenyl-1,3-dihydro-2H-1,4-benzodiazepin-2-one], the psychopharmacological effect entry in the series on central nervous system (already with small doses) is recorded as “strong”. In the series on central nervous system (higher doses), the “tolerability of higher doses sufficient to achieve an improved ulcer inhibiting effect” value is on record as “not tolerable”.

Consider `COc1ccc2c(c1)N1CCOCC1CN=C2c1ccccc1` (stereo not shown) [F], for which the LD50 at 168 h in series [1] is above 1430 mg/kg. The ED50 with muscle tone was above 308 mg/kg; in series [2] it was 202 mg/kg. Further, in series [3], the inhibition in vivo at 100 mg/kg was determined as 42%.

Regarding `CN1C(=O)CN=C(c2ccccc2)c2cc(Cl)ccc21` [S], the ED50 was found to be 4.2 mg/kg in the series on muscle tone and 1.5 mg/kg in series [2]. Besides, the inhibition in vivo at 12 mg/kg in series [3] (12 mg/kg oral, higher doses not tolerable) worked out at 28%.

For `Clc1ccc2c(c1)C(c1ccccc1)=NCC1CN(CCc3ccccc3)CCN21` (stereo not shown) [K], in series [1], the LD50 at 168 h is above 1310 mg/kg. Also, the ED50 in the series with muscle tone is above 284 mg/kg; in series [2], 110 mg/kg. For the same compound, the inhibition in vivo at 200 mg/kg in series [3] stood at 85%.

`Cc1ccc2c(c1)C(c1ccccc1)=NCC1COCCN21` (stereo not shown) [C]: the LD50 at 168 h in series [1] was above 1430 mg/kg. Besides, the ED50 with muscle tone is above 316 mg/kg; in series [2] it was 139 mg/kg. For the same compound, the inhibition in vivo at 200 mg/kg in series [3] was determined as 68%.

In series [1], `Cc1ccc2c(c1)C(c1ccccc1)=NCC1CN(C)CCN21` (stereo not shown) [L] came in with an LD50 at 168 h above 1010 mg/kg. The ED50 was above 215 mg/kg in the series with muscle tone and 164 mg/kg in series [2]. Besides, the inhibition in vivo at 250 mg/kg in series [3] (250 mg/kg oral) amounted to 70%.

In series [1], `Cc1cc2c(cc1Cl)N1CCOCC1CN=C2c1ccccc1` (stereo not shown) [G] returned an LD50 at 168 h above 1520 mg/kg. The ED50 with muscle tone is above 327 mg/kg; in series [2], 119 mg/kg. For the same compound, the inhibition in vivo at 200 mg/kg in series [3] turned out to be 77%.

For the compound `Clc1ccc2c(c1)C(c1ccccc1)=NCC1COCCN21` (stereo not shown) [A], in series [1], the median lethal dose (LD50) at 168 h was 2260 mg/kg. The figures for the ED50 (in the series on muscle tone; in series [2]) were 285 mg/kg and 31.6 mg/kg, respectively. In addition, the inhibition in vivo at 150 mg/kg in series [3] (150 mg/kg oral) is 61%.

For `Cc1ccc2c(c1)N1CCOCC1CN=C2c1ccccc1` (stereo not shown) [D], the LD50 at 168 h in series [1] is above 1470 mg/kg. For the same compound, the ED50 is above 316 mg/kg in the series on muscle tone and 138 mg/kg in series [2]. In addition, the inhibition in vivo at 100 mg/kg in series [3] was 70%.

As to `C=CCN1CCN2c3ccc(Cl)cc3C(c3ccccc3)=NCC2C1` (stereo not shown) [I], the LD50 at 168 h in series [1] stood at 1090 mg/kg. Besides, the figures for the ED50 (in the series with muscle tone; in series [2]) were above 316 mg/kg and 100 mg/kg, respectively. Also, the inhibition in vivo at 200 mg/kg in series [3] came to 81%.
